The results in this text go back to ChEMBL document CHEMBL3045179, “Mode of Action and QSAR Studies of Nitrification Inhibitors” (J Pestic Sci, 1997).

A short description of data set [1]: Octanol-water partition coefficient, log P of the compound. It is filed as physicochemical.
Data set [2] has as its system Nitrosomonas europaea. Description: Inhibition of Nitrosomonas europaea ATCC 25978-mediated nitrification activity assessed as nitrite nitrogen formation at 0.1 mg/kg after 7 to 10 days by Griess-Ilosvay method relative to control. It is filed as functional. Conditions: values are per cent of control. (In general: Nitrite, measured by Griess reagent, commonly stands in for NO production.)

The subject of data set [3] is Nitrosomonas europaea. In words: Inhibition of Nitrosomonas europaea ATCC 25978-mediated nitrification activity assessed as nitrite nitrogen formation after 7 to 10 days by Griess-Ilosvay method. Conditions: read-out: pI50 (converted). It is filed as functional, organism-based.
The test system of data set [4] is Nitrosomonas sp. TK794. Description: Inhibition of Nitrosomonas sp. TK794-mediated nitrification activity assessed as nitrite nitrogen formation at 0.5 mg/kg after 7 to 10 days by Griess-Ilosvay method relative to control. It is filed as functional.
Data set [5] relates to Nitrosomonas sp. TK794. Description: Inhibition of Nitrosomonas sp. TK794-mediated nitrification activity assessed as nitrite nitrogen formation at 5 mg/kg after 7 to 10 days by Griess-Ilosvay method relative to control. It is filed as functional.
In data set [6] the test system is Nitrosomonas europaea. Description: Inhibition of Nitrosomonas europaea ATCC 25978-mediated nitrification activity assessed as nitrite nitrogen formation at 1 mg/kg after 7 to 10 days by Griess-Ilosvay method relative to control. It is filed as functional. Conditions: values are per cent of control.
In data set [7] the test system is Nitrosomonas europaea. Description: Inhibition of Nitrosomonas europaea ATCC 25978-mediated nitrification activity assessed as nitrite nitrogen formation at 0.5 mg/kg after 7 to 10 days by Griess-Ilosvay method relative to control. It is filed as functional. Conditions: values are per cent of control.
The subject of data set [8] is Nitrosomonas sp. TK794. In words: Inhibition of Nitrosomonas sp. TK794-mediated nitrification activity assessed as nitrite nitrogen formation at 500 mg/kg after 7 to 10 days by Griess-Ilosvay method relative to control. It is filed as functional.
In data set [9] the test system is Nitrosomonas europaea. In words: Inhibition of Nitrosomonas europaea ATCC 25978-mediated nitrification activity assessed as nitrite nitrogen formation at 10 mg/kg after 7 to 10 days by Griess-Ilosvay method relative to control. It is filed as functional.
Data set [10] concerns Nitrosomonas sp. TK794. Description: Inhibition of Nitrosomonas sp. TK794-mediated nitrification activity assessed as nitrite nitrogen formation at 1 mg/kg after 7 to 10 days by Griess-Ilosvay method relative to control. It is filed as functional.

Regarding `COc1nc(N)nc(C(Cl)(Cl)Cl)n1`, the logP in data set [1] (read-out: logP) was found to be 2.36. Besides, in the data set on Nitrosomonas europaea [2], the residual activity at 0.1 mg/kg was 36.1%. Further, the IC50 in the data set with Nitrosomonas europaea [3] was 490 nM. Further, the inhibition in vivo at 0.5 mg/kg with Nitrosomonas sp. TK794 [4] is 29.5%.

`Nc1nc(-c2ccccc2)nc(C(Cl)(Cl)Cl)n1`: in the data set with Nitrosomonas sp. TK794 [5], the inhibition in vivo at 5 mg/kg is 49.7%. Moreover, the residual activity at 1 mg/kg in the data set with Nitrosomonas europaea [6] amounted to 20.8%. Moreover, in data set [1] (read-out: logP), the logP worked out at 4.02. The IC50 with Nitrosomonas europaea [3] was 363 nM.

On to `CCCCN(C)c1nc(C)nc(C(Cl)(Cl)Cl)n1`, for which, in data set [1] (read-out: logP), the logP worked out at 5.65. Also, in the data set on Nitrosomonas europaea [2], the residual activity at 0.1 mg/kg turned out to be 59.5%. The IC50 in the data set on Nitrosomonas europaea [3] was 589 nM.

`CSc1nc(N)nc(C(Cl)(Cl)Cl)n1`: the inhibition in vivo at 5 mg/kg in the data set on Nitrosomonas sp. TK794 [5] worked out at 27%. Moreover, the logP in [1] (read-out: logP) came to 2.96. The IC50 with Nitrosomonas europaea [3] is 1260 nM. The residual activity at 0.5 mg/kg in the data set with Nitrosomonas europaea [7] was 65.5%.

`CCCNc1nc(C)nc(C(Cl)(Cl)Cl)n1`: the residual activity at 1 mg/kg in the data set with Nitrosomonas europaea [6] turned out to be 42.9%. Besides, the logP in [1] (read-out: logP) is 4.56. Moreover, in the data set with Nitrosomonas europaea [3], the IC50 is 2000 nM.

As for `CCCCNc1nc(C)nc(C(Cl)(Cl)Cl)n1`, the logP in data set [1] (read-out: logP) came out at 5.08. Moreover, the residual activity at 0.1 mg/kg with Nitrosomonas europaea [2] is 79.5%. For the same molecule, the IC50 in the data set on Nitrosomonas europaea [3] is 1510 nM.

As to `CCCCCNc1nc(C)nc(C(Cl)(Cl)Cl)n1`, the logP in [1] (read-out: logP) was 5.61. For the same molecule, the residual activity at 0.1 mg/kg with Nitrosomonas europaea [2] was found to be 61.5%. In addition, the IC50 in the data set on Nitrosomonas europaea [3] is 501 nM.

Consider `CCCCCCNc1nc(C)nc(C(Cl)(Cl)Cl)n1`, for which, in data set [1] (read-out: logP), the lipophilicity (logP) is 6.13. Moreover, the residual activity at 0.1 mg/kg in the data set on Nitrosomonas europaea [2] is 54.5%. In addition, in the data set on Nitrosomonas europaea [3], the IC50 is 417 nM.

With `CCCCCCCNc1nc(C)nc(C(Cl)(Cl)Cl)n1`, in [1] (read-out: logP), the logP amounted to 6.66. Also, in the data set with Nitrosomonas europaea [2], the residual activity at 0.1 mg/kg was 44.9%. In addition, the IC50 with Nitrosomonas europaea [3] was 380 nM.

In the case of `CCCCCCCCCCCCNc1nc(C)nc(C(Cl)(Cl)Cl)n1`, the inhibition in vivo at 500 mg/kg in the data set on Nitrosomonas sp. TK794 [8] stood at 33.2%. Moreover, the inhibition in vivo at 10 mg/kg in the data set with Nitrosomonas europaea [9] came to 69.4%. This molecule showed a logP in data set [1] of 9.3. Also, the IC50 in the data set on Nitrosomonas europaea [3] was 45700 nM.

For the molecule `Cc1nc(N)nc(C(Cl)(Cl)Cl)n1`, the inhibition in vivo at 5 mg/kg in the data set on Nitrosomonas sp. TK794 [5] is 42.1%. The logP in data set [1] (read-out: logP) stood at 2.82.

In the case of `CCCCCCCCCNc1nc(C)nc(C(Cl)(Cl)Cl)n1`, in the data set on Nitrosomonas sp. TK794 [5], the inhibition in vivo at 5 mg/kg amounted to 55%. Also, the residual activity at 1 mg/kg in the data set on Nitrosomonas europaea [6] was determined as 59%. In addition, the logP in [1] (read-out: logP) stood at 7.72. For the same molecule, the IC50 with Nitrosomonas europaea [3] is 3020 nM.

Regarding `Cc1nc(N(C)C)nc(C(Cl)(Cl)Cl)n1`, in [1] (read-out: logP), the logP worked out at 4.07. Also, in the data set on Nitrosomonas sp. TK794 [10], the inhibition in vivo at 1 mg/kg worked out at 58.7%.

With `CCCCN(CC)c1nc(C)nc(C(Cl)(Cl)Cl)n1`, the logP in data set [1] (read-out: logP) came to 6.17. In the data set on Nitrosomonas europaea [2], the residual activity at 0.1 mg/kg worked out at 52.9%. Besides, in the data set with Nitrosomonas europaea [3], the IC50 was 955 nM.

Turning to `CCCCN(CCCC)c1nc(C)nc(C(Cl)(Cl)Cl)n1`, in the data set on Nitrosomonas europaea [6], the residual activity at 1 mg/kg is 56.2%. Also, the logP in [1] (read-out: logP) was determined as 7.23. The IC50 with Nitrosomonas europaea [3] is 2090 nM. Besides, the inhibition in vivo at 1 mg/kg with Nitrosomonas sp. TK794 [10] came to 56.8%.

As to `Cc1nc(Nc2ccccc2)nc(C(Cl)(Cl)Cl)n1`, the logP in data set [1] (read-out: logP) came to 4.7. The residual activity at 0.1 mg/kg with Nitrosomonas europaea [2] is 66%. The IC50 with Nitrosomonas europaea [3] is 501 nM. For the same molecule, the inhibition in vivo at 1 mg/kg in the data set on Nitrosomonas sp. TK794 [10] came out at 39%.

Consider `COc1nc(C)nc(C(Cl)(Cl)Cl)n1`, for which the logP in data set [1] (read-out: logP) was determined as 3.98. For the same molecule, in the data set on Nitrosomonas sp. TK794 [4], the inhibition in vivo at 0.5 mg/kg came to 32%.

On to `Cc1nc(Oc2ccc(Cl)cc2)nc(C(Cl)(Cl)Cl)n1`, for which, in the data set with Nitrosomonas europaea [6], the residual activity at 1 mg/kg stood at 36.1%. The logP in data set [1] (read-out: logP) is 5.94. Further, in the data set on Nitrosomonas europaea [3], the IC50 is 741 nM. Further, the inhibition in vivo at 1 mg/kg in the data set with Nitrosomonas sp. TK794 [10] was 47%.

For `CCCCc1nc(N)nc(C(Cl)(Cl)Cl)n1`, the residual activity at 1 mg/kg in the data set with Nitrosomonas europaea [6] was 29%. Besides, the logP in data set [1] (read-out: logP) worked out at 4.4. The IC50 with Nitrosomonas europaea [3] was 1200 nM. Moreover, the inhibition in vivo at 1 mg/kg with Nitrosomonas sp. TK794 [10] worked out at 39.7%.

Regarding `CNc1nc(-c2ccccc2)nc(C(Cl)(Cl)Cl)n1`, the logP in data set [1] (read-out: logP) worked out at 4.7. For the same molecule, the residual activity at 0.1 mg/kg in the data set with Nitrosomonas europaea [2] worked out at 53.2%. Moreover, the IC50 with Nitrosomonas europaea [3] is 372 nM. In addition, the inhibition in vivo at 0.5 mg/kg in the data set with Nitrosomonas sp. TK794 [4] was 57.1%.

Turning to `CCNc1nc(-c2ccccc2)nc(C(Cl)(Cl)Cl)n1`, the logP in [1] (read-out: logP) came to 5.23. Moreover, the residual activity at 0.1 mg/kg in the data set with Nitrosomonas europaea [2] amounted to 45.3%. In the data set with Nitrosomonas europaea [3], the IC50 is 380 nM. For the same molecule, the inhibition in vivo at 0.5 mg/kg with Nitrosomonas sp. TK794 [4] was determined as 47.8%.

Turning to `CCCNc1nc(-c2ccccc2)nc(C(Cl)(Cl)Cl)n1`, the logP in data set [1] (read-out: logP) was 5.75. In addition, in the data set with Nitrosomonas europaea [2], the residual activity at 0.1 mg/kg is 50.1%. Also, in the data set on Nitrosomonas europaea [3], the IC50 is 389 nM. Further, the inhibition in vivo at 0.5 mg/kg in the data set with Nitrosomonas sp. TK794 [4] is 58.1%.

Regarding `CN(C)c1nc(-c2ccccc2)nc(C(Cl)(Cl)Cl)n1`, in the data set with Nitrosomonas sp. TK794 [5], the inhibition in vivo at 5 mg/kg was 43%. In addition, in the data set on Nitrosomonas europaea [6], the residual activity at 1 mg/kg worked out at 40.1%. Besides, the logP in data set [1] (read-out: logP) came out at 5.4. Also, the IC50 in the data set on Nitrosomonas europaea [3] is 1700 nM.

The logP is a log measure of how a compound divides between an organic and an aqueous phase. As usually defined, the residual activity is the signal under treatment as a percentage of the control signal. The term inhibition in vivo denotes how much of the control response was suppressed.
